Assay results as given in publication PMC10408569, “Recruitment of hexahydroquinoline as anticancer scaffold targeting inhibition of wild and mutants EGFR (EGFR^WT, EGFR^T790M, and EGFR^L858R)” (Journal of Enzyme Inhibition and Medicinal Chemistry, 2023).

Legend:
[1] = tested on: NCI-H460; assay: NCI-60 anticancer screening (SRB); format: cell-based; settings: Homo sapiens; NCI-H460, NSC lung cancer; one dose 10 μM; read-out: Growth Inhibition Percentage (GI %)
[2] = tested on: MALME-3M; assay: NCI-60 anticancer screening (SRB); format: cell-based; settings: Homo sapiens, melanoma, one dose 10 μM, read-out: Growth Inhibition Percentage (GI %)
[3] = tested on: HOP-92; assay: NCI-60 anticancer screening (SRB); format: cell-based; settings: Homo sapiens; HOP-92, NSC lung cancer; one dose 10 μM; read-out: Growth Inhibition Percentage (GI %)
[4] = tested on: NCI/ADR-RES; assay: NCI-60 anticancer screening (SRB); format: cell-based; settings: Homo sapiens, ovarian cancer, one dose 10 μM, read-out: Growth Inhibition Percentage (GI %)
[5] = target: EGFR^WT (Homo sapiens, UniProt P00533); assay: EGFR kinase inhibitory assay (HTRF)
Chain of EGFR^WT (P00533 25-1210): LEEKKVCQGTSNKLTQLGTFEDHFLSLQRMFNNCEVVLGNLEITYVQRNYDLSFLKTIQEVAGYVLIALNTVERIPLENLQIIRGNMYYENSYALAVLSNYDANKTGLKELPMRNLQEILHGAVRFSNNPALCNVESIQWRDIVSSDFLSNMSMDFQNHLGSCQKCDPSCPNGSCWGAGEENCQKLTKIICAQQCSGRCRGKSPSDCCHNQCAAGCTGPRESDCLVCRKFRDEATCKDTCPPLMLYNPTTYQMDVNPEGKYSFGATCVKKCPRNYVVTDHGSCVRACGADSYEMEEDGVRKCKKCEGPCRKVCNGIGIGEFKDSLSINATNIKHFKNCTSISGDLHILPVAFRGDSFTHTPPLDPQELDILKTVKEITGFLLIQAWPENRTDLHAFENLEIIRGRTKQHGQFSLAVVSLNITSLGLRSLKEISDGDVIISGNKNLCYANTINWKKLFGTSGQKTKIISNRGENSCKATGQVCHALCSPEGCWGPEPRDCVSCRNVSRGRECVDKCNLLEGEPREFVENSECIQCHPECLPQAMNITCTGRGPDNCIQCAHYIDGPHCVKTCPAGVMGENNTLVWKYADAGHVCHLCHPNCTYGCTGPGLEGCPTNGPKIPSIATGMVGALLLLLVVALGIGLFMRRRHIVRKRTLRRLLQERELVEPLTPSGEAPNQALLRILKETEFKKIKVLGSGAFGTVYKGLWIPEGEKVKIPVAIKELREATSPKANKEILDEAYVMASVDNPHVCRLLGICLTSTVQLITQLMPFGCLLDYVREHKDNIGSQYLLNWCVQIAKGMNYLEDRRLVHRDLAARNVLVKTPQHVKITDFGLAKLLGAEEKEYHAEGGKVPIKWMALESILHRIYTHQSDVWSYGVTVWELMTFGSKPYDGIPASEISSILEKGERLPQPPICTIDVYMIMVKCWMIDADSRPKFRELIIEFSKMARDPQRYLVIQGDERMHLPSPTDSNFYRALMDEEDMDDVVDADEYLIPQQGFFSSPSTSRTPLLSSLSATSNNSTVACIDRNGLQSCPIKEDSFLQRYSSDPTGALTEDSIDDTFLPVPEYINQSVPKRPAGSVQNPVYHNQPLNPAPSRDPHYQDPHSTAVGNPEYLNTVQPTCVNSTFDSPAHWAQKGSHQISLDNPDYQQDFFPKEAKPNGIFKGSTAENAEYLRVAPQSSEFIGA

[6] = tested on: SF-539; assay: NCI-60 anticancer screening (SRB); format: cell-based; settings: Homo sapiens; SF-539, CNS cancer; one dose 10 μM; read-out: Growth Inhibition Percentage (GI %)
[7] = tested on: EKVX; assay: NCI-60 anticancer screening (SRB); format: cell-based; settings: Homo sapiens, NSC lung cancer, one dose 10 μM, read-out: Growth Inhibition Percentage (GI %)
[8] = tested on: HS 578T; assay: NCI-60 anticancer screening (SRB); format: cell-based; settings: Homo sapiens; HS 578T, breast cancer; one dose 10 μM; read-out: Growth Inhibition Percentage (GI %)
[9] = tested on: BT-549; assay: NCI-60 anticancer screening (SRB); format: cell-based; settings: Homo sapiens; BT-549, breast cancer; one dose 10 μM; read-out: Growth Inhibition Percentage (GI %)
[10] = tested on: DU-145; assay: NCI-60 anticancer screening (SRB); format: cell-based; settings: Homo sapiens; DU-145, prostate cancer; one dose 10 μM; read-out: Growth Inhibition Percentage (GI %)
[11] = tested on: IGROV1; assay: NCI-60 anticancer screening (SRB); format: cell-based; settings: Homo sapiens, IGROV-1; IGROV1, ovarian cancer; one dose 10 μM; read-out: Growth Inhibition Percentage (GI %)
[12] = tested on: MDA-MB-231; assay: NCI-60 anticancer screening (SRB); format: cell-based; settings: Homo sapiens; MDA-MB-231, breast cancer; one dose 10 μM; read-out: Growth Inhibition Percentage (GI %)
[13] = tested on: SK-MEL-28; assay: NCI-60 anticancer screening (SRB); format: cell-based; settings: Homo sapiens; SK-MEL-28, melanoma; one dose 10 μM; read-out: Growth Inhibition Percentage (GI %)
[14] = tested on: CAKI-1; assay: NCI-60 anticancer screening (SRB); format: cell-based; settings: Homo sapiens; CAKI-1, renal cancer; one dose 10 μM; read-out: Growth Inhibition Percentage (GI %)
[15] = tested on: CCRF-CEM; assay: NCI-60 anticancer screening (SRB); format: cell-based; settings: Homo sapiens, leukemia, one dose 10 μM, read-out: Growth Inhibition Percentage (GI %)
[16] = tested on: U251; assay: NCI-60 anticancer screening (SRB); format: cell-based; settings: Homo sapiens, U-251; U251, CNS cancer; one dose 10 μM; read-out: Growth Inhibition Percentage (GI %)
[17] = tested on: M14; assay: NCI-60 anticancer screening (SRB); format: cell-based; settings: Homo sapiens; M14, melanoma; one dose 10 μM; read-out: Growth Inhibition Percentage (GI %)
[18] = tested on: MCF7; assay: NCI-60 anticancer screening (SRB); format: cell-based; settings: Homo sapiens; MCF7, breast cancer; one dose 10 μM; read-out: Growth Inhibition Percentage (GI %)
[19] = tested on: UO-31; assay: NCI-60 anticancer screening (SRB); format: cell-based; settings: Homo sapiens; UO-31, renal cancer; one dose 10 μM; read-out: Growth Inhibition Percentage (GI %)
[20] = target: EGFR^L858R (Homo sapiens, UniProt P00533, L858R); assay: biochemical
Chain of EGFR^L858R (P00533 25-1210 L858R): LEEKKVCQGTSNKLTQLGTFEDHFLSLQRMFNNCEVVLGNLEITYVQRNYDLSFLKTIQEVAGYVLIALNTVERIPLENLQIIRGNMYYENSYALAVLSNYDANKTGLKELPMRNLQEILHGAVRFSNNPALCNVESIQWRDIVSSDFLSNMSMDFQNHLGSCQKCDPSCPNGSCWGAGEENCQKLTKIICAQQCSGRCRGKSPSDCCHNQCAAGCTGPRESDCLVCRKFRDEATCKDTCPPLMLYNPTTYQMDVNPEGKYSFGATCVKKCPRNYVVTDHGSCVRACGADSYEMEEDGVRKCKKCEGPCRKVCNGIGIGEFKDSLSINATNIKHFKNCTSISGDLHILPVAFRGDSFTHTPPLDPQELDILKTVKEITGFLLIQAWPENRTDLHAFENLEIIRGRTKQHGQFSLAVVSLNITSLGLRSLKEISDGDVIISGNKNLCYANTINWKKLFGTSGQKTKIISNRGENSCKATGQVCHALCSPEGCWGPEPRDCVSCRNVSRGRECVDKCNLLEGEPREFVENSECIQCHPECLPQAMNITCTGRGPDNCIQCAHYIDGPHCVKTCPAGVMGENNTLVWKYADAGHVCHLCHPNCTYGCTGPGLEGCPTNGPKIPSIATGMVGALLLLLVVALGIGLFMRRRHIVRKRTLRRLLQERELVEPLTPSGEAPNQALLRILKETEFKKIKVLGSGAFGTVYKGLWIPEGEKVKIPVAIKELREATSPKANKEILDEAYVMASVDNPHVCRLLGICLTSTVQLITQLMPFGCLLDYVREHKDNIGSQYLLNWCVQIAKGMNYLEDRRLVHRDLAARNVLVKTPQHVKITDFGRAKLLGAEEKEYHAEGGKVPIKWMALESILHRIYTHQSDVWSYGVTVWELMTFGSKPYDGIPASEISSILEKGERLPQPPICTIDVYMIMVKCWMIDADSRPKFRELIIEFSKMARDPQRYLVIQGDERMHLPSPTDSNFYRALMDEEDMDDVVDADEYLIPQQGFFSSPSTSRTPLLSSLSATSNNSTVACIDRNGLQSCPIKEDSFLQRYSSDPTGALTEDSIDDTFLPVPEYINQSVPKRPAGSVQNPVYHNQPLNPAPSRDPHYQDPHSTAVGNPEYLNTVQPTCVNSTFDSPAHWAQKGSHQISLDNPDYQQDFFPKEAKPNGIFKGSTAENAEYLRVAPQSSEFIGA

[21] = tested on: HT29; assay: NCI-60 anticancer screening (SRB); format: cell-based; settings: Homo sapiens, HT-29; HT29, colon cancer; one dose 10 μM; read-out: Growth Inhibition Percentage (GI %)
[22] = tested on: UACC-62; assay: NCI-60 anticancer screening (SRB); format: cell-based; settings: Homo sapiens; UACC-62, melanoma; one dose 10 μM; read-out: Growth Inhibition Percentage (GI %)
[23] = tested on: HCT-116; assay: NCI-60 anticancer screening (SRB); format: cell-based; settings: Homo sapiens; HCT-116, colon cancer; one dose 10 μM; read-out: Growth Inhibition Percentage (GI %)
[24] = tested on: 786-0; assay: NCI-60 anticancer screening (SRB); format: cell-based; settings: Homo sapiens; 786-0, renal cancer; one dose 10 μM; read-out: Growth Inhibition Percentage (GI %)
[25] = tested on: PC-3; assay: NCI-60 anticancer screening (SRB); format: cell-based; settings: Homo sapiens; PC-3, prostate cancer; one dose 10 μM; read-out: Growth Inhibition Percentage (GI %)
[26] = tested on: A498; assay: NCI-60 anticancer screening (SRB); format: cell-based; settings: Homo sapiens; A498, renal cancer; one dose 10 μM; read-out: Growth Inhibition Percentage (GI %)
[27] = tested on: COLO 205; assay: NCI-60 anticancer screening (SRB); format: cell-based; settings: Homo sapiens; COLO 205, colon cancer; one dose 10 μM; read-out: Growth Inhibition Percentage (GI %)
[28] = tested on: SN 12C; assay: NCI-60 anticancer screening (SRB); format: cell-based; settings: Homo sapiens, SN12C; SN 12C, renal cancer; one dose 10 μM; read-out: Growth Inhibition Percentage (GI %)
[29] = target: EGFR^T790M (Homo sapiens, UniProt P00533, T790M); assay: biochemical
Chain of EGFR^T790M (P00533 25-1210 T790M): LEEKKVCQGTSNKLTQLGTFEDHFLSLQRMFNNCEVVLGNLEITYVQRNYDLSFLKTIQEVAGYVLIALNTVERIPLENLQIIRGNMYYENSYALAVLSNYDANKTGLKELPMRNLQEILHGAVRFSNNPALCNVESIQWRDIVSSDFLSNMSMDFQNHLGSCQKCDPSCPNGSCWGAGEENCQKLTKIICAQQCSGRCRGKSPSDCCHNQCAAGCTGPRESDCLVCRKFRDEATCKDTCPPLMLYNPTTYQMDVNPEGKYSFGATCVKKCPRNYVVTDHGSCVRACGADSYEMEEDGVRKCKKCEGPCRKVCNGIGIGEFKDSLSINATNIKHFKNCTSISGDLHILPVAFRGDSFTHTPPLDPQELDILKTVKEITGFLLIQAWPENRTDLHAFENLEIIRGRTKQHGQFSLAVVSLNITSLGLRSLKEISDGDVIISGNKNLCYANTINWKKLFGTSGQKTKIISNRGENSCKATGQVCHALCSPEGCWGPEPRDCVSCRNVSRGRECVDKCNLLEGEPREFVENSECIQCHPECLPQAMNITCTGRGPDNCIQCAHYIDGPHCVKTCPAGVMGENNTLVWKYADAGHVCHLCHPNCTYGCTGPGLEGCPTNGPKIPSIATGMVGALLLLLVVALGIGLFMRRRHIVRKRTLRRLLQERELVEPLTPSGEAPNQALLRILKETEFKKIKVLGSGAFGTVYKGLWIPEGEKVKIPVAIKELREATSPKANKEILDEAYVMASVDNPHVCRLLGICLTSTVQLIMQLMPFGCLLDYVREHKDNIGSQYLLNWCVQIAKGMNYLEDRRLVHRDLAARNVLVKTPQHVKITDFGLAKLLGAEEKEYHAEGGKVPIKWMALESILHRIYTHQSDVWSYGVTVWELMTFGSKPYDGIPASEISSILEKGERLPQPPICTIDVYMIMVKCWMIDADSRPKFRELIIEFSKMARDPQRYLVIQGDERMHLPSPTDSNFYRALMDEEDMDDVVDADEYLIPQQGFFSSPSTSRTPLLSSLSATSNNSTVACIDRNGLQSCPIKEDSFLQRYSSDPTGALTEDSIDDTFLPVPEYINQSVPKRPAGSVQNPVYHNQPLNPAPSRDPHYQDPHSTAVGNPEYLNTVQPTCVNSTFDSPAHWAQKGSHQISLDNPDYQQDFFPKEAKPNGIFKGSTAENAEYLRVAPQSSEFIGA

[30] = tested on: SF-295; assay: NCI-60 anticancer screening (SRB); format: cell-based; settings: Homo sapiens; SF-295, CNS cancer; one dose 10 μM; read-out: Growth Inhibition Percentage (GI %)
[31] = tested on: TK-10; assay: NCI-60 anticancer screening (SRB); format: cell-based; settings: Homo sapiens; TK-10, renal cancer; one dose 10 μM; read-out: Growth Inhibition Percentage (GI %)

Row | SMILES | inhibition at 10 µM [1] [%] | inhibition at 10 µM [2] [%] | inhibition at 10 µM [3] [%] | inhibition at 10 µM [4] [%] | inhibition at 10 µM [6] [%] | inhibition at 10 µM [7] [%] | inhibition at 10 µM [8] [%] | inhibition at 10 µM [9] [%] | inhibition at 10 µM [10] [%] | inhibition at 10 µM [11] [%] | inhibition at 10 µM [12] [%] | inhibition at 10 µM [13] [%] | inhibition at 10 µM [14] [%] | inhibition at 10 µM [15] [%] | inhibition at 10 µM [16] [%] | inhibition at 10 µM [17] [%] | inhibition at 10 µM [18] [%] | inhibition at 10 µM [19] [%] | inhibition at 10 µM [21] [%] | inhibition at 10 µM [22] [%] | other results
1 | CCOC(=O)C1=C(N)N(c2ccc(Cl)cc2)C2=C(C(=O)CC(C)(C)C2)C1c1ccc(F)cc1 (racemic) [8b, (±)-Ethyl 2-amino-1–(4-chlorophenyl)-4–(4-fluoroyphenyl)-7,7-dimethyl-5-oxo-1,4,5,6,7,8-hexahydroquinoline-3-carboxylate] | < 10 | < 10 | 21 | 12 | < 10 | 25 | < 10 | 13 | < 10 | < 10 | 19 | < 10 | 26 | 26 | 21 | 14 | 25 | 30 | 39 | 40 | IC50 [5]: 186 ± 100 nM; IC50 [20]: 770 ± 6 nM; inhibition at 10 µM [23]: 34%; inhibition at 10 µM [24]: 20%; inhibition at 10 µM [25]: 35%; inhibition at 10 µM [26]: < 10%; inhibition at 10 µM [27]: 13%; inhibition at 10 µM [28]: < 10%; IC50 [29]: 650 ± 4 nM; inhibition at 10 µM [30]: 12%; inhibition at 10 µM [31]: < 10%
2 | CCOC(=O)C1=C(N)N(c2ccc(Cl)cc2)C2=C(C(=O)CC(C)(C)C2)C1c1cccnc1 (racemic) [12f, (±)-Ethyl 2-amino-1–(4-chlorophenyl)-7,7-dimethyl-5-oxo-4-(pyridin-3-yl)-1,4,5,6,7,8-hexahydroquinoline-3-carboxylate] | < 10 | < 10 | < 10 | 11 | 12 | < 10 | 16 | < 10 | < 10 | < 10 | < 10 | < 10 | < 10 | < 10 | < 10 | < 10 | < 10 | 21 | < 10 | < 10 | inhibition at 10 µM [23]: < 10%; inhibition at 10 µM [24]: < 10%; inhibition at 10 µM [25]: < 10%; inhibition at 10 µM [26]: < 10%; inhibition at 10 µM [27]: < 10%; inhibition at 10 µM [28]: < 10%; inhibition at 10 µM [30]: < 10%; inhibition at 10 µM [31]: < 10%
3 | CCOC(=O)C1=C(N)N(c2ccc(C)cc2)C2=C(C(=O)CC(C)(C)C2)C1c1ccc(OC)cc1 (racemic) [8g, (±)-Ethyl 2-amino-4–(4-methoxyphenyl)-7,7-dimethyl-1–(4-methylphenyl)-5-oxo-1,4,5,6,7,8-hexahydroquinoline-3-carboxylate] | < 10 | < 10 | < 10 | < 10 | < 10 | < 10 | < 10 | < 10 | < 10 | < 10 | < 10 | < 10 | < 10 | < 10 | < 10 | < 10 | < 10 | < 10 | < 10 | < 10 | inhibition at 10 µM [23]: < 10%; inhibition at 10 µM [24]: < 10%; inhibition at 10 µM [25]: < 10%; inhibition at 10 µM [26]: < 10%; inhibition at 10 µM [27]: < 10%; inhibition at 10 µM [28]: < 10%; inhibition at 10 µM [30]: < 10%; inhibition at 10 µM [31]: < 10%
4 | CCOC(=O)C1=C(N)N(c2ccc(Cl)cc2)C2=C(C(=O)CC(C)(C)C2)C1c1ccc(OC)cc1 (racemic) [8h, (±)-Ethyl 2-amino-1–(4-chlorophenyl)-4–(4-methoxyphenyl)-7,7-dimethyl-5-oxo-1,4,5,6,7,8-hexahydroquinoline-3-carboxylate] | < 10 | < 10 | < 10 | < 10 | < 10 | < 10 | < 10 | 25 | < 10 | < 10 | < 10 | < 10 | < 10 | < 10 | < 10 | < 10 | < 10 | < 10 | < 10 | < 10 | inhibition at 10 µM [23]: < 10%; inhibition at 10 µM [24]: < 10%; inhibition at 10 µM [25]: < 10%; inhibition at 10 µM [26]: < 10%; inhibition at 10 µM [27]: < 10%; inhibition at 10 µM [28]: < 10%; inhibition at 10 µM [30]: < 10%; inhibition at 10 µM [31]: < 10%
